Assay results published in ChEMBL document CHEMBL1201862, “PubChem BioAssay data set” (2004).
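Each compound was tested at five concentrations against cells in 96-well plates for 48 hours. At the GI50, growth is halved.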 Calls of active or inactive are those of the source. No stated cut-off is given here; in the data, active = GI50 up to about 1.1 µM and inactive = higher.

Experiments:
Test in all cases: NCI anticancer screen, dose series, 48 h
[1] = test system: SF-268
[2] = test system: UACC-62
[3] = test system: SR
[4] = test system: HCT-15
[5] = test system: MOLT-4
[6] = test system: BT-549
[7] = test system: DU-145
[8] = test system: EKVX
[9] = test system: 786-0
[10] = test system: OVCAR-4
[11] = test system: MCF7
[12] = test system: M14
[13] = test system: HL-60
[14] = test system: A498
[15] = test system: LOX IMVI
[16] = test system: SK-MEL-2
[17] = test system: SNB-75

Compound	GI50 [1]	GI50 [2]	GI50 [3]	GI50 [4]	GI50 [5]	GI50 [6]	GI50 [7]	GI50 [8]	GI50 [9]	GI50 [10]	GI50 [11]	GI50 [12]	GI50 [13]	GI50 [14]	GI50 [15]	GI50 [16]	GI50 [17]
COC(=O)c1c(C)c2c(c(C)c1O)OC(=O)c1c(C)cc(O)c(C=O)c1O2	> 100 µM (inactive)	45.3 µM (inactive)	> 100 µM (inactive)	> 100 µM	> 100 µM (inactive)	> 100 µM (inactive)	> 100 µM (inactive)	> 100 µM (inactive)	> 100 µM (inactive)	> 100 µM (inactive)	> 100 µM (inactive)	> 100 µM (inactive)	> 100 µM (inactive)				
CCN(CC)CCn1nc(N)c2nc3cc(Cl)ccc3nc21	75.5 µM (inactive)	45.9 µM (inactive)	82.8 µM (inactive)	> 100 µM	33.4 µM (inactive)	> 100 µM (inactive)	> 100 µM (inactive)	80 µM (inactive)	62.8 µM (inactive)	> 100 µM (inactive)	36.1 µM (inactive)	37.8 µM (inactive)	61.4 µM (inactive)	> 100 µM (inactive)	51.2 µM (inactive)	64.3 µM (inactive)	
O=C1C=CC(=O)c2c1ccc1c3ccccc3n(Cc3ccc([N+](=O)[O-])cc3)c21	> 100 µM (inactive)	> 100 µM (inactive)	13.8 µM (inactive)	70.1 µM	20.3 µM (inactive)	> 100 µM (inactive)	> 100 µM (inactive)	> 100 µM (inactive)	> 100 µM (inactive)	> 100 µM (inactive)	> 100 µM (inactive)	> 100 µM (inactive)	14 µM (inactive)				> 100 µM (inactive)
COc1ccc(CC2OC3(CCCCC3)CC3CCCCN32)cc1 (stereo not given)	> 100 µM (inactive)	> 100 µM (inactive)	28.8 µM (inactive)	> 100 µM	75.9 µM (inactive)	> 100 µM (inactive)	> 100 µM (inactive)	> 100 µM (inactive)	> 100 µM (inactive)	> 100 µM (inactive)	72.9 µM (inactive)	76.6 µM (inactive)	> 100 µM (inactive)		48.3 µM (inactive)	> 100 µM (inactive)	91.2 µM (inactive)
Cc1ccc(Cc2n[nH]c(=O)n2Nc2ccccc2)cc1	> 100 µM (inactive)	> 100 µM (inactive)	> 100 µM (inactive)	> 100 µM	> 100 µM (inactive)	> 100 µM (inactive)	> 100 µM (inactive)	81.5 µM (inactive)	> 100 µM (inactive)	> 100 µM (inactive)	> 100 µM (inactive)		> 100 µM (inactive)	> 100 µM (inactive)	> 100 µM (inactive)	> 100 µM (inactive)	
Cc1ccc(-c2cn3c(nc4ccccc43)c(/C=C/c3ccco3)n2)cc1	59.7 µM (inactive)	> 100 µM (inactive)	19.6 µM (inactive)	> 100 µM		> 100 µM (inactive)	> 100 µM (inactive)		48 µM (inactive)	56.8 µM (inactive)	29.6 µM (inactive)	> 100 µM (inactive)	22.2 µM (inactive)	> 100 µM (inactive)	69.2 µM (inactive)	22.1 µM (inactive)	> 100 µM (inactive)
NCCCc1ccc2oc3ccccc3c2c1	19.5 µM (inactive)	17.7 µM (inactive)	16.2 µM (inactive)	17.6 µM	11.8 µM (inactive)	19.9 µM (inactive)	16.9 µM (inactive)		13.7 µM (inactive)	19.9 µM (inactive)	18.7 µM (inactive)	15.8 µM (inactive)	11.4 µM (inactive)	16.1 µM (inactive)	18.5 µM (inactive)	20.4 µM (inactive)	16.8 µM (inactive)
Cc1ccc(C2NC(=N)NC3=C2CCOc2c3ccc3ccccc23)cc1 (stereo not given)	24.7 µM (inactive)	2.58 µM (inactive)	0.466 µM (active)	4.3 µM	7.26 µM (inactive)	6.04 µM (inactive)	7.35 µM (inactive)	7.8 µM (inactive)	2.61 µM (inactive)	9.38 µM (inactive)	4.91 µM (inactive)	1.76 µM (inactive)	2.96 µM (inactive)	17.3 µM (inactive)		36.7 µM (inactive)	5.21 µM (inactive)
CC(=O)Oc1ccc2cc(Oc3ccccc3)c(=O)oc2c1	> 100 µM (inactive)		> 100 µM (inactive)	53.3 µM		39.9 µM (inactive)	> 100 µM (inactive)	> 100 µM (inactive)	> 100 µM (inactive)	76.9 µM (inactive)	> 100 µM (inactive)	> 100 µM (inactive)	> 100 µM (inactive)	67 µM (inactive)	58.2 µM (inactive)		90.6 µM (inactive)
CCc1ccc2c(c1)/C(=C1/Nc3ccccc3/C1=N/O)C(=O)N2	8.22 µM (inactive)	11 µM (inactive)	3.29 µM (inactive)	3.53 µM	4.3 µM (inactive)	8 µM (inactive)	6.49 µM (inactive)	5.19 µM (inactive)	6.61 µM (inactive)	6.67 µM (inactive)	1.66 µM (inactive)	12.6 µM (inactive)		4.03 µM (inactive)	6.76 µM (inactive)	4.38 µM (inactive)	11.8 µM (inactive)
COc1c(-c2ccc(O)c(O)c2)oc2c(O)c(O)cc(O)c2c1=O		51.1 µM (inactive)	22 µM (inactive)	85.5 µM	28.6 µM (inactive)	> 100 µM (inactive)	> 100 µM (inactive)	> 100 µM (inactive)	67.5 µM (inactive)	50.6 µM (inactive)	28.2 µM (inactive)	> 10 µM (inactive)	> 10 µM (inactive)	> 100 µM (inactive)	15.2 µM (inactive)	> 100 µM (inactive)	
Cc1ccc(/C=N\NC(=O)c2ccncc2)s1	> 100 µM (inactive)	> 100 µM (inactive)	> 100 µM (inactive)	> 100 µM	> 100 µM (inactive)	> 100 µM (inactive)	> 100 µM (inactive)	> 100 µM (inactive)	> 100 µM (inactive)	> 100 µM (inactive)	> 100 µM (inactive)	> 100 µM (inactive)	> 100 µM (inactive)	> 100 µM (inactive)		> 100 µM (inactive)	
Cc1cc(C#N)c[n+](C)c1	> 100 µM (inactive)	> 100 µM (inactive)	> 100 µM (inactive)	> 100 µM	> 100 µM (inactive)	> 100 µM (inactive)	> 100 µM (inactive)	> 100 µM (inactive)	> 100 µM (inactive)	> 100 µM (inactive)	> 100 µM (inactive)	> 100 µM (inactive)	> 100 µM (inactive)	> 100 µM (inactive)		> 100 µM (inactive)	> 100 µM (inactive)
CN(CCNC(=O)c1n[nH]c2c1Cc1ccccc1-2)CCNC(=O)c1n[nH]c2c1Cc1ccccc1-2	19.5 µM (inactive)	19 µM (inactive)	19.5 µM (inactive)	18.4 µM	19.4 µM (inactive)	16.8 µM (inactive)	15.5 µM (inactive)	20.6 µM (inactive)	16 µM (inactive)	15.9 µM (inactive)	19.3 µM (inactive)	18.7 µM (inactive)	21.1 µM (inactive)	18.6 µM (inactive)	18.9 µM (inactive)		12.5 µM (inactive)
CN(C)c1ccc(/C=N/c2ccc(-c3nc4ccccc4[nH]3)cc2)cc1	60 µM (inactive)		12.9 µM (inactive)	24.6 µM	25.7 µM (inactive)	19.3 µM (inactive)	65.8 µM (inactive)	> 100 µM (inactive)	74.8 µM (inactive)	35.9 µM (inactive)	46.9 µM (inactive)	> 100 µM (inactive)	24.7 µM (inactive)	69.5 µM (inactive)	51.5 µM (inactive)	> 100 µM (inactive)	33.7 µM (inactive)
O=C(O)CCC(NC(=O)c1ccc(Nc2nc3ccccc3nc2C(=O)O)cc1)C(=O)O (stereo not given)	> 100 µM (inactive)	> 100 µM (inactive)	> 100 µM (inactive)		> 100 µM (inactive)	> 100 µM (inactive)	> 100 µM (inactive)	> 100 µM (inactive)	> 100 µM (inactive)	> 100 µM (inactive)	> 100 µM (inactive)	> 100 µM (inactive)	> 100 µM (inactive)			> 100 µM (inactive)	> 100 µM (inactive)
O=C1CSC(=S)N1c1ccco1	> 100 µM (inactive)		> 100 µM (inactive)	22 µM	> 100 µM (inactive)	16.3 µM (inactive)	> 100 µM (inactive)	> 100 µM (inactive)	25.4 µM (inactive)	> 100 µM (inactive)	39.2 µM (inactive)	44.2 µM (inactive)	32.6 µM (inactive)	> 100 µM (inactive)	79.6 µM (inactive)	46.7 µM (inactive)	
NC(=O)c1ncn2c(=O)n(CCl)nnc12	> 100 µM (inactive)	76 µM (inactive)	15.4 µM (inactive)	41.4 µM	> 100 µM (inactive)	> 100 µM (inactive)	> 100 µM (inactive)	> 100 µM (inactive)	85.9 µM (inactive)	> 100 µM (inactive)	49.3 µM (inactive)	> 100 µM (inactive)		> 100 µM (inactive)	15.8 µM (inactive)	> 100 µM (inactive)	> 100 µM (inactive)
Cc1ccc(C)c(N2C(=O)C(=O)c3c(C)ccc(C)c32)c1	23.3 µM (inactive)	16.3 µM (inactive)	15.4 µM (inactive)	14.2 µM	22.3 µM (inactive)	19.5 µM (inactive)	27.7 µM (inactive)	60.7 µM (inactive)	29.3 µM (inactive)	18.8 µM (inactive)	23.4 µM (inactive)	17.1 µM (inactive)	35.6 µM (inactive)		17.4 µM (inactive)	20.6 µM (inactive)	34.9 µM (inactive)
